These results are taken from ChEMBL document CHEMBL1130277, “Three-dimensional quantitative structure-activity relationships from molecular similarity matrices and genetic neural networks. 2. Applications” (J Med Chem, 1997).

The target of one assay is Acetylcholinesterase (Homo sapiens, UniProt P22303).
Chain of Acetylcholinesterase (P22303 whole entry): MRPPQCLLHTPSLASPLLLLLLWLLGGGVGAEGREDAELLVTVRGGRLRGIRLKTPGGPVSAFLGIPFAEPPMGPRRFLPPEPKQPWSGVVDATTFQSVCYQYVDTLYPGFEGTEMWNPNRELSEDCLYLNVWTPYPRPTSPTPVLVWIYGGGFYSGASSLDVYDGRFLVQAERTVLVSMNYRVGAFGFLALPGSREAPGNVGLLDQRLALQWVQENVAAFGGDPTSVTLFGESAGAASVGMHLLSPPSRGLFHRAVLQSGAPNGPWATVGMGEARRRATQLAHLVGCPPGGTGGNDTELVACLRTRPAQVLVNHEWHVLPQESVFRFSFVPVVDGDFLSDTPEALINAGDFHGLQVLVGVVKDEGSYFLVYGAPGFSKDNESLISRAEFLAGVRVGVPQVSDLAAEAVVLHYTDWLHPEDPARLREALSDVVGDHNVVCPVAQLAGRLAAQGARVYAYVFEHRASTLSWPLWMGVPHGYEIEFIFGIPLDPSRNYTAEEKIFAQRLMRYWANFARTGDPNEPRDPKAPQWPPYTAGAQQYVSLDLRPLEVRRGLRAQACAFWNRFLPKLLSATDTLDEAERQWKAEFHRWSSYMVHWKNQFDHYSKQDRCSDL
Description: Inhibition acetylcholinesterase (AChE) enzyme.
`C=CCC[N+](C)(C)C`: 847 µM corresponded to half-maximal inhibition (IC50).

Take `C[N+](C)(C)CCS`: the IC50 is 440 µM.

The compound `CCCCCC[N+](C)(C)C` showed an IC50 of 817 µM.

Compound `CCC(=O)Oc1cccc([N+](C)(C)C)c1` showed an IC50 of 5.97 µM.

As for `CCC(=O)Oc1ccc(C)c([N+](C)(C)C)c1`, the IC50 is 69 µM.

For `COc1ccc(C)c([N+](C)(C)C)c1`, the IC50 came out at 345 µM. Compared with the last compound, the IC50 is about 5-fold higher.

As for `CC(=O)CCC[N+](C)(C)C`, the IC50 was 84.7 µM.

Compound `CC(=O)Nc1cccc([N+](C)(C)C)c1` showed an IC50 of 1000 µM.

Take `Cc1ccc(O)cc1[N+](C)(C)C`: the IC50 is 2.82 µM.

Turning to `CCC(=O)Oc1cc([N+](C)(C)C)ccc1C`, the IC50 is 3.77 µM.

`COc1cc([N+](C)(C)C)ccc1C` gave an IC50 of 122 µM.

`CC(=O)Oc1cc([N+](C)(C)C)ccc1C` gave an IC50 of 0.659 µM. Compared with the last compound, the IC50 is about 190-fold lower.

For `CCCC(=O)SCC[N+](C)(C)C`, it took 126 µM to reach half-maximal inhibition (IC50).

Turning to `C=CCCC[N+](C)(C)C`, inhibition was half-maximal at 1130 µM (IC50).

Turning to `C[N+]1(C)CCO[C@@](O)(c2ccc(C#N)cc2)C1`, the IC50 is 11600 µM.

Compound `C[N+](C)(C)CCCCI` showed an IC50 of 471 µM.

Turning to `CC(=O)Oc1ccc(C)c([N+](C)(C)C)c1`, 5.33 µM corresponded to half-maximal inhibition (IC50).

On to `C[N+](C)(C)CCCl`, for which the IC50 was 2390 µM.

With `CC(=O)Nc1ccc([C@@]2(O)C[N+](C)(C)CCO2)cc1`, 2070 µM corresponded to half-maximal inhibition (IC50).

In the case of `C[N+](C)(C)CCCCCBr`, inhibition was half-maximal at 535 µM (IC50). Compared with the last compound, the IC50 is about 3.9-fold lower.

Another assay addresses T1, Aryl hydrocarbon receptor (Homo sapiens, UniProt P35869).
T1 sequence (P35869 whole entry): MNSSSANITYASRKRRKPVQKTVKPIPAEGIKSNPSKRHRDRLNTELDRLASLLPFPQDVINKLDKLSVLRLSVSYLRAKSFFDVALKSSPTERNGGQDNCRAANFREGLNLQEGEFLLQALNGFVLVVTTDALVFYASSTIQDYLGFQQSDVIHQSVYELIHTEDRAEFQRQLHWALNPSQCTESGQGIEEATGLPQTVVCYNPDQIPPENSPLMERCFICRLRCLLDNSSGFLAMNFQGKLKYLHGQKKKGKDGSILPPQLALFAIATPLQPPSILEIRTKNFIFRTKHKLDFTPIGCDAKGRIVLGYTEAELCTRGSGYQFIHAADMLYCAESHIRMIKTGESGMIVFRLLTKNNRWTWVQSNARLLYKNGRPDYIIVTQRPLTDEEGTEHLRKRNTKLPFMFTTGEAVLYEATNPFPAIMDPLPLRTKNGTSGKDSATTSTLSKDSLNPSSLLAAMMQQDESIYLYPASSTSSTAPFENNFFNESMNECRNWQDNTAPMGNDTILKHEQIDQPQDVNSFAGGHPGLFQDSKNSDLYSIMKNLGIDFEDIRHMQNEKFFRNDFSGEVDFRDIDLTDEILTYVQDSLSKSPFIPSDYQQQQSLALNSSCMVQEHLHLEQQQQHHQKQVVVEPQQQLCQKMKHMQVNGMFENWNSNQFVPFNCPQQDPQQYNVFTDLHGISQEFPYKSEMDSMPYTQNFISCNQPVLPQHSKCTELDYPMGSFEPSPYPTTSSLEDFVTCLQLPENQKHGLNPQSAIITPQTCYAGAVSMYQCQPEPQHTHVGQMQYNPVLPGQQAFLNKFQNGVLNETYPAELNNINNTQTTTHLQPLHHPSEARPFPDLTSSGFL
Description: Affinity on cytosolic Aromatic hydrocarbon receptor (Ah)
Compound `Clc1cc(Cl)c2c(c1)oc1cc(Cl)c(Cl)c(Cl)c12` gave an EC50 of 0.4 µM.

Compound `Clc1cc2oc3c(Cl)cccc3c2c(Cl)c1Cl` gave an EC50 of 0.35 µM.

`Brc1cc(Br)c2c(c1)Oc1cc(Br)cc(Br)c1O2`: the EC50 was 0.0929 µM.

The compound `Brc1ccc2c(c1)Oc1ccc(Br)cc1O2` showed an EC50 of 0.0155 µM.

Regarding `Clc1cc2c(cc1Cl)Oc1c(Cl)c(Cl)c(Cl)c(Cl)c1O2`, the EC50 is 0.28 µM. This EC50 lies about 18-fold higher than the previous one.

Turning to `Clc1cc(-c2ccc(Cl)c(Cl)c2Cl)cc(Cl)c1Cl`, the response was half-maximal at 5 µM (EC50).

As for `Clc1cc(Cl)c(-c2cc(Cl)c(Cl)c(Cl)c2)cc1Cl`, the EC50 was 16 µM.

`Clc1cc2c(cc1Cl)Oc1c(Cl)cccc1O2`: the EC50 is 0.22 µM. This EC50 is about 73-fold lower than that of the compound before.

`Clc1cc(Cl)c2c(c1)Oc1cc(Cl)c(Cl)cc1O2` had an EC50 of 0.794 µM.

Regarding `Clc1ccc2c(c1)Oc1cc(Cl)c(Cl)cc1O2`, a half-maximal effect (EC50) was put at 0.071 µM.

For `Clc1cc2oc3c(Cl)cc(Cl)c(Cl)c3c2cc1Cl`, the response was half-maximal at 1.3 µM (EC50).

In the case of `Clc1cc2c(cc1Cl)Oc1cc(Br)c(Br)cc1O2`, the EC50 was 0.00148 µM.

`Brc1ccc2c(c1)Oc1cc(Br)c(Br)cc1O2` gave an EC50 of 0.00117 µM.

For `Clc1c(Cl)c(Cl)c2c(c1Cl)Oc1c(Cl)c(Cl)c(Cl)c(Cl)c1O2`, the EC50 was 10 µM. This EC50 is about 8500-fold higher than that of the compound before.

As to `Clc1ccc(-c2cc(Cl)c(Cl)c(Cl)c2Cl)cc1Cl`, the EC50 was 7.1 µM. This EC50 and that of the compound before are within 1.5-fold of each other.

Consider `Clc1ccc2oc3c(Cl)cc(Cl)c(Cl)c3c2c1`, for which the EC50 was 10 µM.

With `Clc1cc(Cl)c2c(c1Cl)Oc1ccccc1O2`, the midpoint of the response, the EC50, lay at 13 µM.

As for `Clc1cc2oc3cc(Cl)c(Cl)cc3c2cc1Cl`, a half-maximal effect (EC50) was put at 0.041 µM.

`Clc1ccc2c(c1)oc1cc(Cl)c(Cl)c(Cl)c12` showed an EC50 of 0.219 µM.

`Clc1ccc2c(oc3c(Cl)cc(Cl)c(Cl)c32)c1Cl` showed an EC50 of 0.0678 µM. Compared with the last compound, the EC50 is about 3.2-fold lower.

Take `Clc1cc2c(oc3c(Cl)cccc32)c(Cl)c1Cl`: the EC50 is 0.35 µM.

Compound `Clc1cc(Cl)c2oc3cc(Cl)c(Cl)cc3c2c1` showed an EC50 of 0.22 µM.

`Clc1cc2c(oc3c(Cl)cc(Cl)c(Cl)c32)c(Cl)c1Cl` showed an EC50 of 8.3 µM.

With `Clc1cc(Cl)c2oc3c(Cl)cc(Cl)c(Cl)c3c2c1`, a half-maximal effect (EC50) was put at 3.1 µM.

On to `Brc1cc(Br)c2c(c1)Oc1cc(Br)c(Br)cc1O2`, for which the half-maximal effective concentration (EC50) was 0.002 µM.

Take `Clc1cc2c(cc1Cl)Oc1c(cc(Cl)c(Cl)c1Cl)O2`: the response was half-maximal at 0.0794 µM (EC50). This EC50 lies about 40-fold higher than the previous one.

`Clc1ccc(-c2cc(Cl)c(Cl)cc2Cl)cc1Cl` had an EC50 of 9.1 µM.

As to `Clc1cc2oc3cc(Cl)c(Cl)c(Cl)c3c2cc1Cl`, the response was half-maximal at 0.0741 µM (EC50). Compared with the last compound, the EC50 is about 120-fold lower.

As for `Clc1cc2c(cc1Br)Oc1cc(Br)c(Cl)cc1O2`, it took 0.000447 µM to reach a half-maximal effect (EC50).

`Clc1cc(Cl)c2c(c1)oc1c(Cl)cc(Cl)c(Cl)c12` gave an EC50 of 20 µM. This EC50 lies about 45000-fold higher than the previous one.

With `Clc1ccc2oc3c(Cl)c(Cl)c(Cl)cc3c2c1`, the EC50 is 0.2 µM.

Take `Clc1cccc2c1Oc1ccccc1O2`: the EC50 is 100 µM.

`Clc1ccc(-c2cc(Cl)c(Cl)c(Cl)c2)c(Cl)c1` gave an EC50 of 14.1 µM.

On to `Brc1cc2c(cc1Br)Oc1c(cc(Br)c(Br)c1Br)O2`, for which the midpoint of the response, the EC50, lay at 0.00661 µM.

In turn, `Clc1ccc(-c2cc(Cl)c(Cl)c(Cl)c2)cc1` had an EC50 of 28 µM.

Take `Clc1cc2c(cc1Cl)Oc1c(ccc(Cl)c1Cl)O2`: the EC50 is 0.16 µM. This EC50 is about 180-fold lower than that of the compound before.

For `Clc1cc(Cl)c2c(c1)oc1c(Cl)cccc12`, the EC50 was 4.37 µM.

`Clc1cc2c(cc1Cl)Oc1cc(Br)c(Cl)cc1O2`: the midpoint of the response, the EC50, lay at 0.0115 µM.

`Clc1cc(Cl)c(-c2cc(Cl)c(Cl)c(Cl)c2)c(Cl)c1` showed an EC50 of 99.1 µM. Compared with the last compound, the EC50 is about 8600-fold higher.

`Brc1ccc2c(c1)Oc1ccccc1O2` had an EC50 of 0.295 µM.

Consider `Clc1cccc2c1oc1ccccc12`, for which the response was half-maximal at 1000 µM (EC50).

`Clc1ccc2c(c1)oc1ccccc12` gave an EC50 of 42 µM.

Compound `Clc1cc(-c2ccccc2)c(Cl)c(Cl)c1Cl` gave an EC50 of 140 µM. This EC50 lies about 3.3-fold higher than the previous one.

On to `Clc1ccc(-c2cc(Cl)c(Cl)c(Cl)c2Cl)cc1`, for which the EC50 was 4.1 µM.

As for `Clc1cc(Cl)c2c(c1)oc1c(Cl)c(Cl)c(Cl)cc12`, the EC50 is 0.2 µM. Against the preceding compound, the EC50 is about 20-fold lower.

The compound `Clc1cc2oc3c(Cl)c(Cl)c(Cl)cc3c2cc1Cl` gave an EC50 of 0.0151 µM.

`Clc1ccc2c(c1)oc1c(Cl)c(Cl)c(Cl)cc12`: it took 0.0251 µM to reach a half-maximal effect (EC50). This EC50 lies about 1.7-fold higher than the previous one.

The compound `Clc1cc2c(cc1Cl)Oc1c(Cl)c(Cl)cc(Cl)c1O2` showed an EC50 of 1.1 µM.

Compound `Clc1ccc2c(c1)Oc1c(Cl)c(Cl)c(Cl)c(Cl)c1O2` had an EC50 of 6.46 µM.

Turning to `Clc1cc(Cl)c2c(c1)oc1ccc(Cl)cc12`, the midpoint of the response, the EC50, lay at 85.1 µM.

In turn, `Clc1ccc(-c2ccc(Cl)c(Cl)c2Cl)cc1Cl` showed an EC50 of 4.27 µM.

`Brc1cc2c(cc1Br)Oc1cc(Br)c(Br)cc1O2` gave a concentration giving a half-maximal response (EC50) of 0.0015 µM.

For the compound `Clc1ccc2c(c1)Oc1cc(Cl)ccc1O2`, the EC50 was 3.2 µM.

In turn, `Clc1cc2oc3c(Cl)c(Cl)cc(Cl)c3c2cc1Cl` gave an EC50 of 0.2 µM.

For the compound `Clc1cc2oc3c(Cl)c(Cl)c(Cl)c(Cl)c3c2cc1Cl`, the response was half-maximal at 0.23 µM (EC50).

Turning to `Clc1cc2c(oc3c(Cl)c(Cl)c(Cl)cc32)c(Cl)c1Cl`, the EC50 was 0.0468 µM.

In turn, `Clc1cc2c(oc3cc(Cl)c(Cl)c(Cl)c32)c(Cl)c1Cl` showed an EC50 of 0.27 µM.

`Clc1c(Cl)c(Cl)c2c(c1Cl)Oc1ccccc1O2` gave an EC50 of 1.3 µM.

As to `Clc1ccc(-c2ccc(Cl)c(Cl)c2)cc1Cl`, the EC50 was 0.71 µM.

The compound `Clc1ccc2oc3c(Cl)c(Cl)c(Cl)c(Cl)c3c2c1` gave an EC50 of 0.12 µM.

In turn, `Brc1cc2c(cc1Br)Oc1c(Br)c(Br)cc(Br)c1O2` had an EC50 of 0.017 µM.

Compound `Clc1cc(Cl)c(-c2cc(Cl)c(Cl)cc2Cl)cc1Cl` [2,2',4,4',5,5'-HEXACHLOROBIPHENYL] gave an EC50 of 79.4 µM. This EC50 lies about 4700-fold higher than the previous one.

Regarding `Clc1cc2c(cc1Cl)Oc1cc(Cl)c(Cl)cc1O2` [2,3,7,8-TETRACHLORODIBENZO-P-DIOXIN], the EC50 is 0.01 µM.

As to `Clc1ccc(-c2cc(Cl)c(Cl)c(Cl)c2)cc1Cl` [POLYCHLORINATED BIPHENYL 126], the midpoint of the response, the EC50, lay at 0.13 µM.

The IC50 is the concentration needed to halve the response being measured. A low value points to inhibition by little substance. The term EC50 denotes the midpoint of the concentration-response curve. Lower therefore signals an effect from little substance.
